From patent US20240415915A1, “TRADITIONAL CHINESE MEDICINE FERMENTED PREPARATION FOR PREVENTING AND TREATING GOUT, ITS PREPARATION METHOD AND APPLICATION” (priority 2023, published 2024)

Tested on: mice with hyperuricemia
Test: Effect on serum uric acid (UA) levels in mice with hyperuricemia
Format: in vivo
Conditions: 0.02 g/kg orally once a day, 7 days; hypoxanthine + potassium oxonate model; model group 768.30, blank 145.80
Excerpt: 60 mice (each mouse with a weight of (20±2) g) are taken and randomly divided into 6 groups, with 10 mice in each group, denoted as a blank group, a model group, a benzbromarone group, a high dose traditional Chinese medicine fermented preparation group, a medium dose traditional Chinese medicine fermented preparation group, and a low dose traditional Chinese medicine fermented preparation group. After 5 days of adaptive breeding, except for the blank group (injected with an equal volume of physiological saline), the mice in other groups are injected intraperitoneally with 0.3 g/kg/mouse of hypoxanthine +0.05 g/kg/mouse of potassium oxonate (i.e., oxonic acid potassium salt) daily for model replication, for 7 consecutive days. At the same time, the mice in the benzbromarone group are administered orally at a dose of 0.02 g/kg/mouse once a day, the mice in the high, medium and low dose traditional Chinese medicine fermented preparation groups are administered orally at a dose of 2 mL/kg/mouse, 1 mL/kg/mouse, and 0.5 mL/kg/mouse once, respectively, while the mice in the blank group and the model group are given physiological saline (1 mL/kg) orally, for 7 consecutive days. After 7 days, tail vein blood is collected from the mice in all groups, and then centrifuged to separate […] to obtain serum, the serum is taken to measure serum UA levels.

## CCc1oc2ccccc2c1C(=O)c1cc(Br)c(O)c(Br)c1 [Benzbromarone, benzbromarone]
  Serum UA level: 302.30 µmol/L
